Data reported in EP0417790B1, “S-triazolo[3,4-i]purine derivatives” (Kyowa Hakko Kogyo Co., Ltd., priority 1989, dated 1991).
Like-named read-outs stand apart in the source and are kept apart here.

Legend:
Wistar male rats = experiment: Diuretic activity; type: in vivo; conditions: Rattus norvegicus, po, 25 mg/kg orally, urine taken for 6 hours
Experimental: Wistar male rats weighing 150 to 300 g were used after fasting for 18 hours. […] The test was performed using 3 groups per test compound, and each group consists of 3 animals. The urine was metered by a measuring cylinder and electrolytes (Na^+ and K^+) in the urine were analyzed by flame photometer (model […]: Hitachi Ltd.). Parameters in Table 3 are represented by relative value for control.

male dd-mice = experiment: Acute toxicity; type: in vivo; conditions: Minimum lethal dose, oral, mortality observed for seven days
Experimental: The compounds were orally administrated to male dd-mice weighing 20 ± 1 g. Minimum lethal dose (MLD) was determined by observing the mortality for seven days after the administration.

trachea = experiment: Passive Schultz-Dale reaction (broncho-dilatory effect) on isolated tracheal strips; conditions: Cavia porcellus; 50% relaxation of antigen (EWA, 1 µg/ml)-contracted tracheal strips of passively sensitized guinea pigs
Experimental: Guinea pigs were passively sensitized as follows. Hartley male guinea pigs weighing 350 to 500 g were injected intraperitoneally with rabbit anti-egg albumin (EWA) serum prepared by the method of Koda et al. [Folia pharmacol., Japon 66, 237, (1970)]. After 24 hours, the guinea pigs were stunned and exsanguinated, and then trachea was excised. The zig-zag strips of the trachea were prepared by the method of Emmerson and Mackay [J. Pharm. Pharmacol., 31, 798, (1979)]. The strips were suspended in Krebs-Henseleit solution at 37°C under aeration of a mixed gas of 95% oxygen and 5% carbon dioxide, and incubated for one hour. Antigen (EWA) was then introduced in the solution (final concentration; 1 µg/ml), and the contraction was measured by isotonictransducer (TD-112s, made by Nihon Kohden K.K., Japan) and recorded on a recorder (Type 3066, made by Yokogawa-Hokushin Denki, K.K. Japan). After the contraction curves reached plateau the compounds were successively added in order to get cumulative concentration-relaxation curves. Concentration of 50% relaxation rate (IC50) was calculated from the regression line, which was obtained from cumulative concentration-relaxation curves.

[1] = relative value for control (1.00), read-out: Na^+/K^+
[2] = relative value for control (100), read-out: Excretion of K^+
[3] = relative value for control (100), read-out: Excretion of Na^+
[4] = relative value for control (100), read-out: Urine volume

Structure (SMILES)	response vs control in vivo at 25 mg/kg (Wistar male rats; [1])	response vs control in vivo at 25 mg/kg (Wistar male rats; [2])	response vs control in vivo at 25 mg/kg (Wistar male rats; [3])	response vs control in vivo at 25 mg/kg (Wistar male rats; [4])	MLD (male dd-mice)	IC50 (trachea)
CCCn1c(=O)n2c(-c3ccncc3)nnc2c2c1ncn2Cc1ccccc1 [Compound 39, 9-Benzyl-6,9-dihydro-6-n-propyl-3-(4-pyridyl)-5H-1,2,4-triazolo[3,4-i]purin-5-one]	127%	145%	184%	185%	>300 mg/kg	
CCCn1c(=O)n2c(-c3ccc(F)cc3)nnc2c2c1ncn2C [Compound 17, 6,9-Dihydro-3-(4-fluorophenyl)-9-methyl-6-n-propyl-5H-1,2,4-triazolo[3,4-i]purin-5-one]	142%	134%	179%	178%	>300 mg/kg	
CCCn1c(=O)n2c(=S)[nH]nc2c2c1ncn2C [Compound 46, 9-Methyl-6-n-propyl-2,2,6,9-tetrahydro-3-thioxo-5H-1,2,4-triazolo[3,4-i]purin-5-one]					>300 mg/kg	
NS(=O)(=O)c1cc(C(=O)O)c(NCc2ccco2)cc1Cl [Furosemide, reference compound]	105%					
CCCn1cnc2c1c1nnc(-c3ccncc3)n1c(=O)n2CCC [Compound 40Sa]	97%	136%	132%	155%	100 mg/kg	
CCCn1c(=O)n2c(-c3ccccc3OC)nnc2c2c1ncn2C [Compound 7, 6,9-Dihydro-3-(2-methoxyphenyl)-9-methyl-6-n-propyl-5H-1,2,4-triazolo[3,4-i]purin-5-one]	133%	122%	162%	173%	300 mg/kg	
CCCn1cnc2c1c1n[nH]c(=O)n1c(=O)n2CCC [Compound 44, 6,9-Di-n-propyl-2,5,6,9-tetrahydro-3H-1,2,4-triazolo[3,4-i]purin-3,5-dione]	111%	128%	142%	191%	>300 mg/kg	39.6 µM
CCCn1c(=O)n2c(-c3ccc([N+](=O)[O-])cc3)nnc2c2c1ncn2C [Compound 16, 6,9-Dihydro-9-methyl-3-(4-nitrophenyl)-6-n-propyl-5H-1,2,4-triazolo[3,4-i]purin-5-one]	111%	175%	194%	170%	>300 mg/kg	
CCCn1c(=O)n2c(-c3ccccc3)nnc2c2[nH]c(C3CCCC3)nc21 [Compound 26, 8-Cyclopentyl-6,9-dihydro-6-n-propyl-3-phenyl-5H-1,2,4-triazolo[3,4-i]purin-5-one]					>300 mg/kg	
CCCn1c(=O)n2c(-c3ccc(C(=O)O)cc3)nnc2c2c1ncn2C [Compound 23, 6,9-Dihydro-3-(4-carboxyphenyl)-9-methyl-6-n-propyl-5H-1,2,4-triazolo[3,4-i]purin-5-one]					>300 mg/kg	
CCCn1c(=O)n2c(=O)n(CC)nc2c2c1ncn2C [Compound 48, 2-Ethyl-9-methyl-6-n-propyl-2,5,6,9-tetrahydro-3H-1,2,4-triazolo[3,4-i]purin-2,5-dione]					>300 mg/kg	
CCCn1c(=O)n2c(=O)[nH]nc2c2[nH]c(C3CCCC3)nc21 [Compound 43, 8-Cyclopentyl-6-n-propyl-2,5,6,9-tetrahydro-3H-1,2,4-triazolo[3,4-i]purin-3,5-dione]					>300 mg/kg	
Cc1nnc2c3[nH]cnc3n(Cc3ccccc3)c(=O)n12 [Compound 37, 6-Benzyl-6,9-dihydro-3-methyl-5H-1,2,4-triazolo[3,4-i]purin-5-one]					>300 mg/kg	
CCCn1c(=O)n2c(-c3cccs3)nnc2c2[nH]cnc21 [Compound 33, 6,9-Dihydro-6-n-propyl-3-(2-thienyl)-5H-1,2,4-triazolo[3,4-i]purin-5-one]					>300 mg/kg	
CCCn1c(=O)n2c(-c3ccccc3N)nnc2c2c1ncn2C [Compound 13, 3-(2-Aminophenyl)-6,9-dihydro-9-methyl-6-n-propyl-5H-1,2,4-triazolo[3,4-i]purin-5-one]					>300 mg/kg	
CCCn1c(=O)n2c(-c3ccc(OC)c(OC)c3)nnc2c2c1ncn2C [Compound 21, 6,9-Dihydro-3-(3,4-dimethoxyphenyl)-9-methyl-6-n-propyl-5H-1,2,4-triazolo[3,4-i]purin-5-one]					>300 mg/kg	
Cn1cnc2c1c1nnc(-c3ccccc3)n1c(=O)n2-c1ccccc1 [Compound 29, 6,9-Dihydro-3,6-diphenyl-9-methyl-5H-1,2,4-triazolo[3,4-i]-purin-5-one]	141%	110%	155%	170%	>300 mg/kg	
CCCn1c(=O)n2c(-c3cccs3)nnc2c2c1ncn2C [Compound 2, 6,9-Dihydro-9-methyl-6-n-propyl-3-(2-thienyl)-5H-1,2,4-triazolo[3,4-i]purin-5-one]					300 mg/kg	0.4 µM
CCCn1c(=O)n2c(C)nnc2c2[nH]c(C3CCCC3)nc21 [Compound 27, 8-Cyclopentyl-6,9-dihydro-3-methyl-6-n-propyl-5H-1,2,4-triazolo[3,4-i]purin-5-one]					>300 mg/kg	
CCCn1c(=O)n2c(-c3ccc(Cl)c(Cl)c3)nnc2c2c1ncn2C [Compound 20, 3-(3,4-Dichlorophenyl)-6,9-dihydro-9-methyl-6-n-propyl-5H-1,2,4-triazolo[3,4-i]purin-5-one]					>300 mg/kg	
CCCn1c(=O)n2c(-c3ccc(C)cc3)nnc2c2c1ncn2C [Compound 14, 6,9-Dihydro-9-methyl-3-(4-methylphenyl)-6-n-propyl-5H-1,2,4-triazolo[3,4-i]purin-5-one]					>300 mg/kg	45 µM
CCn1nc2c3c(ncn3C)n(Cc3ccccc3)c(=O)n2c1=O [Compound 49, 6-Benzyl-2-ethyl-9-methyl-2,5,6,9-tetrahydro-3H-1,2,4-triazolo[3,4-i]purin-2,5-dione]	161%	173%	279%	300%		
CCCn1c(=O)n2c(-c3cccnc3)nnc2c2[nH]cnc21 [Compound 32, 6,9-Dihydro-6-n-propyl-3-(3-pyridyl)-5H-1,2,4-triazolo[3,4-i]purin-5-one]	152%	129%	196%	195%		
Cn1cnc2c1c1n[nH]c(=O)n1c(=O)n2Cc1ccccc1 [Compound 42, 6-Benzyl-9-methyl-2,5,6,9-tetrahydro-3H-1,2,4-triazolo[3,4-i]purin-3,5-dione]					>300 mg/kg	
CCCn1c(=O)n2c(-c3ccc(N(C)C)cc3)nnc2c2c1ncn2C [Compound 18, 6,9-Dihydro-3-(4-dimethylaminophenyl)-9-methyl-6-n-propyl-5H-1,2,4-triazolo[3,4-i]purin-5-one]	109%	129%	141%	155%	>300 mg/kg	
CCCn1c(=O)n2c(-c3cc(Cl)ccc3Cl)nnc2c2c1ncn2C [Compound 19, 3-(2,5-Dichlorophenyl)-6,9-dihydro-9-methyl-6-n-propyl-5H-1,2,4-triazolo[3,4-i]purin-5-one]					>300 mg/kg	
CCCn1c(=O)n2cnnc2c2c1ncn2C [Compound 36, 6,9-Dihydro-9-methyl-6-n-propyl-5H-1,2,4-triazolo[3,4-i]purin-5-one]					300 mg/kg	
Cn1cnc2c1c1nnc(-c3ccccc3)n1c(=O)n2Cc1ccccc1 [Compound 28, 6-Benzyl-6,9-dihydro-9-methyl-3-phenyl-5H-1,2,4-triazolo-[3,4-i]purin-5-one]					>300 mg/kg	
CCCn1c(=O)n2c(-c3ccc(C(=O)OC)cc3)nnc2c2c1ncn2C [Compound 22, 6,9-Dihydro-3-(4-methoxycarbonylphenyl)-9-methyl-6-n-propyl-5H-1,2,4-triazolo[3,4-i]purin-5-one]					>300 mg/kg	
CCCn1c(=O)n2c(-c3ccc(C(F)(F)F)cc3)nnc2c2c1ncn2C [Compound 15, 6,9-Dihydro-9-methyl-6-n-propyl-3-(4-trifluoromethylphenyl)-5H-1,2,4-triazolo[3,4-i]purin-5-one]					>300 mg/kg	
